Legend:
DQ2–CLIP complex = DQ2–CLIP complex (Homo sapiens, UniProt P01909+P01920); assay: CLIP pre-conditioned peptide exchange assay; format: binding; conditions: CE-FL; for binding to DQ2–CLIP preparation / displacement of pre-bound CLIP peptide: pH 5.5, peptide:DQ2 5:1 ([Cy5-20-mer]=35 μM; [DQ2-CLIP complex]=7 μM)
HLA-DQ2 = assay: DQ2-peptide binding; set-up: species or system human; conditions: single peptide binding; thrombin treated DQ2–αI; DQ2:peptide = 10:1 ([DQ2]=6 μM, [peptide]=0.6 μM); 48 h at 37 °C; phosphate buffer pH 7.3; CE-FL peak areas; error less than 4% in multiple repeats

Chain of DQ2–CLIP complex (P01920 33-230 limits assumed, other chains not shown): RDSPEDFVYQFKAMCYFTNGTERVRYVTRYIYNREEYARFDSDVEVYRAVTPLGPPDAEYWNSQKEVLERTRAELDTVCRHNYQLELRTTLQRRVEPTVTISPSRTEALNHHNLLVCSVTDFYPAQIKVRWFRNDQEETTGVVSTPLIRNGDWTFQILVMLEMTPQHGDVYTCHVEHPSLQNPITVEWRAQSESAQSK

| binding to DQ2–CLIP preparation / displacement of pre-bound CLIP peptide (DQ2–CLIP complex) | SDQ2-peptide / Stotal peptide (%) (binding capacity, fraction of bound peptide) (HLA-DQ2) | effect on dissociation kinetics of CLIP peptide from DQ2–CLIP complex (DQ2–CLIP complex; pH 7.3, with 20-mer (5:1, [Cy5-20-mer]=35 μM; [DQ2-CLIP complex]=7 μM) versus absence of 20-mer) | Substance |
| --- | --- | --- | --- |
| unable to bind |  |  | Cy5-AAIAAVKEEAF [reference compound] |
| not at pH 5.5 | 64 | did not affect the dissociation kinetics | Cy5-LQLQPFPQPELPYPQPELPY [Cy5-20-mer] |

Reference: paper PMC3382112 (Chemistry, an Asian journal, 2012)
